# Experimental data reported in PubChem BioAssay (NCI).
#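 Where inhibition never reached the appropriate level, the endpoint shown equals the highest concentration tested. Otherwise, values were interpolated linearly from a five-concentration, 48-hour dose response in 96-well plates. TGI: total growth inhibition.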
# Test system: MALME-3M melanoma
# Experiment: DTP human tumour cell line panel, 48 h
row,SMILES,TGI
1,[N-]=[N+]=N[C@H]1C[C@@H](CO)O[C@H]1n1cnc2c(N)ncnc21,> 100 µM

# Test system: MOLT-4 leukemia
# Experiment: DTP human tumour cell line panel, 48 h
row,SMILES,TGI
1,CC12CP(=O)(c3ccccc3)CC1C2(Cl)Cl (stereo not drawn),> 100 µM
2,CCN1CCC(O)(c2ccc(OC)cc2)C(C(=O)c2ccc(OC)cc2)C1 (stereo not drawn),> 100 µM
3,CC1CN(C(=O)CN2CCC(CCCCN(C)C)CC2)c2ccccc2NC1=O (stereo not drawn),> 100 µM

# Test system: NCI-H226 lung
# Experiment: DTP human tumour cell line panel, 48 h
row,SMILES,TGI
1,CCN1CCC(O)(c2ccc(OC)cc2)C(C(=O)c2ccc(OC)cc2)C1 (stereo not drawn),> 100 µM
2,CC1CN(C(=O)CN2CCC(CCCCN(C)C)CC2)c2ccccc2NC1=O (stereo not drawn),> 100 µM
3,[N-]=[N+]=N[C@H]1C[C@@H](CO)O[C@H]1n1cnc2c(N)ncnc21,> 100 µM

# Test system: NCI-H23 lung
# Experiment: DTP human tumour cell line panel, 48 h
row,SMILES,TGI
1,CC12CP(=O)(c3ccccc3)CC1C2(Cl)Cl (stereo not drawn),> 100 µM
2,CCN1CCC(O)(c2ccc(OC)cc2)C(C(=O)c2ccc(OC)cc2)C1 (stereo not drawn),35.3 µM
3,CC1CN(C(=O)CN2CCC(CCCCN(C)C)CC2)c2ccccc2NC1=O (stereo not drawn),> 100 µM
4,C1=CC(N(c2ccccc2)C2C=CCCC2)CCC1 (stereo not drawn),> 100 µM
5,[N-]=[N+]=N[C@H]1C[C@@H](CO)O[C@H]1n1cnc2c(N)ncnc21,> 100 µM

# Test system: NCI-H460 lung
# Experiment: DTP human tumour cell line panel, 48 h
row,SMILES,TGI
1,CC12CP(=O)(c3ccccc3)CC1C2(Cl)Cl (stereo not drawn),> 100 µM
2,CCN1CCC(O)(c2ccc(OC)cc2)C(C(=O)c2ccc(OC)cc2)C1 (stereo not drawn),59.5 µM
3,CC1CN(C(=O)CN2CCC(CCCCN(C)C)CC2)c2ccccc2NC1=O (stereo not drawn),> 100 µM
4,C1=CC(N(c2ccccc2)C2C=CCCC2)CCC1 (stereo not drawn),> 100 µM
5,[N-]=[N+]=N[C@H]1C[C@@H](CO)O[C@H]1n1cnc2c(N)ncnc21,> 100 µM

# Test system: NCI-H522 lung
# Experiment: DTP human tumour cell line panel, 48 h
row,SMILES,TGI
1,CC12CP(=O)(c3ccccc3)CC1C2(Cl)Cl (stereo not drawn),> 100 µM
2,CCN1CCC(O)(c2ccc(OC)cc2)C(C(=O)c2ccc(OC)cc2)C1 (stereo not drawn),4.06 µM
3,C1=CC(N(c2ccccc2)C2C=CCCC2)CCC1 (stereo not drawn),> 100 µM
4,[N-]=[N+]=N[C@H]1C[C@@H](CO)O[C@H]1n1cnc2c(N)ncnc21,> 100 µM

# Test system: OVCAR-3 ovarian
# Experiment: DTP human tumour cell line panel, 48 h
row,SMILES,TGI
1,CC12CP(=O)(c3ccccc3)CC1C2(Cl)Cl (stereo not drawn),> 100 µM
2,CCN1CCC(O)(c2ccc(OC)cc2)C(C(=O)c2ccc(OC)cc2)C1 (stereo not drawn),31.6 µM
3,CC1CN(C(=O)CN2CCC(CCCCN(C)C)CC2)c2ccccc2NC1=O (stereo not drawn),> 100 µM
4,[N-]=[N+]=N[C@H]1C[C@@H](CO)O[C@H]1n1cnc2c(N)ncnc21,> 100 µM

# Test system: OVCAR-4 ovarian
# Experiment: DTP human tumour cell line panel, 48 h
row,SMILES,TGI
1,CC12CP(=O)(c3ccccc3)CC1C2(Cl)Cl (stereo not drawn),> 100 µM
2,CCN1CCC(O)(c2ccc(OC)cc2)C(C(=O)c2ccc(OC)cc2)C1 (stereo not drawn),32.4 µM
3,CC1CN(C(=O)CN2CCC(CCCCN(C)C)CC2)c2ccccc2NC1=O (stereo not drawn),> 100 µM
4,[N-]=[N+]=N[C@H]1C[C@@H](CO)O[C@H]1n1cnc2c(N)ncnc21,> 100 µM

# Test system: OVCAR-5 ovarian
# Experiment: DTP human tumour cell line panel, 48 h
row,SMILES,TGI
1,CCN1CCC(O)(c2ccc(OC)cc2)C(C(=O)c2ccc(OC)cc2)C1 (stereo not drawn),32.3 µM
2,CC1CN(C(=O)CN2CCC(CCCCN(C)C)CC2)c2ccccc2NC1=O (stereo not drawn),> 100 µM
3,[N-]=[N+]=N[C@H]1C[C@@H](CO)O[C@H]1n1cnc2c(N)ncnc21,> 100 µM

# Test system: OVCAR-8 ovarian
# Experiment: DTP human tumour cell line panel, 48 h
row,SMILES,TGI
1,CC12CP(=O)(c3ccccc3)CC1C2(Cl)Cl (stereo not drawn),> 100 µM
2,CCN1CCC(O)(c2ccc(OC)cc2)C(C(=O)c2ccc(OC)cc2)C1 (stereo not drawn),43.4 µM
3,C1=CC(N(c2ccccc2)C2C=CCCC2)CCC1 (stereo not drawn),> 100 µM
4,[N-]=[N+]=N[C@H]1C[C@@H](CO)O[C@H]1n1cnc2c(N)ncnc21,> 100 µM

# Test system: RPMI-8226 leukemia
# Experiment: DTP human tumour cell line panel, 48 h
row,SMILES,TGI
1,CC12CP(=O)(c3ccccc3)CC1C2(Cl)Cl (stereo not drawn),> 100 µM
2,CCN1CCC(O)(c2ccc(OC)cc2)C(C(=O)c2ccc(OC)cc2)C1 (stereo not drawn),38.9 µM
3,CC1CN(C(=O)CN2CCC(CCCCN(C)C)CC2)c2ccccc2NC1=O (stereo not drawn),> 100 µM
4,C1=CC(N(c2ccccc2)C2C=CCCC2)CCC1 (stereo not drawn),> 100 µM

# Test system: RXF 393 renal
# Experiment: DTP human tumour cell line panel, 48 h
row,SMILES,TGI
1,CC12CP(=O)(c3ccccc3)CC1C2(Cl)Cl (stereo not drawn),> 100 µM
2,C1=CC(N(c2ccccc2)C2C=CCCC2)CCC1 (stereo not drawn),> 100 µM

# Test system: RXF-631 renal
# Experiment: DTP human tumour cell line panel, 48 h
row,SMILES,TGI
1,CCN1CCC(O)(c2ccc(OC)cc2)C(C(=O)c2ccc(OC)cc2)C1 (stereo not drawn),47.5 µM
2,CC1CN(C(=O)CN2CCC(CCCCN(C)C)CC2)c2ccccc2NC1=O (stereo not drawn),> 100 µM

# Test system: SF-268 CNS
# Experiment: DTP human tumour cell line panel, 48 h
row,SMILES,TGI
1,CCN1CCC(O)(c2ccc(OC)cc2)C(C(=O)c2ccc(OC)cc2)C1 (stereo not drawn),41.8 µM
2,CC1CN(C(=O)CN2CCC(CCCCN(C)C)CC2)c2ccccc2NC1=O (stereo not drawn),> 100 µM
3,C1=CC(N(c2ccccc2)C2C=CCCC2)CCC1 (stereo not drawn),> 100 µM
4,[N-]=[N+]=N[C@H]1C[C@@H](CO)O[C@H]1n1cnc2c(N)ncnc21,> 100 µM

# Test system: SF-295 CNS
# Experiment: DTP human tumour cell line panel, 48 h
row,SMILES,TGI
1,CC12CP(=O)(c3ccccc3)CC1C2(Cl)Cl (stereo not drawn),> 100 µM
2,CCN1CCC(O)(c2ccc(OC)cc2)C(C(=O)c2ccc(OC)cc2)C1 (stereo not drawn),> 100 µM
3,CC1CN(C(=O)CN2CCC(CCCCN(C)C)CC2)c2ccccc2NC1=O (stereo not drawn),> 100 µM
4,C1=CC(N(c2ccccc2)C2C=CCCC2)CCC1 (stereo not drawn),> 100 µM
5,[N-]=[N+]=N[C@H]1C[C@@H](CO)O[C@H]1n1cnc2c(N)ncnc21,> 100 µM

# Test system: SF-539 CNS
# Experiment: DTP human tumour cell line panel, 48 h
row,SMILES,TGI
1,CC12CP(=O)(c3ccccc3)CC1C2(Cl)Cl (stereo not drawn),> 100 µM
2,CCN1CCC(O)(c2ccc(OC)cc2)C(C(=O)c2ccc(OC)cc2)C1 (stereo not drawn),32.4 µM
3,C1=CC(N(c2ccccc2)C2C=CCCC2)CCC1 (stereo not drawn),> 100 µM
4,[N-]=[N+]=N[C@H]1C[C@@H](CO)O[C@H]1n1cnc2c(N)ncnc21,> 100 µM

# Test system: SK-MEL-2 melanoma
# Experiment: DTP human tumour cell line panel, 48 h
row,SMILES,TGI
1,CCN1CCC(O)(c2ccc(OC)cc2)C(C(=O)c2ccc(OC)cc2)C1 (stereo not drawn),38.1 µM
